From ChEMBL document CHEMBL1201862, “PubChem BioAssay data set” (2004)
Active and inactive are the calls of the source. Cut-off read from the data, not from the text of the source, for most assays here: actives have a measured AC50 and inactives only a lower limit.

Assays:
[1] = A549 lung cell viability reduction – CellTiter-Glo luminescence, cherry-pick, cytotoxicity control, dose response (AID 743484); assay type: functional, cell-based
[2] = target: Fructose-bisphosphate aldolase (Mycobacterium tuberculosis, UniProt P9WQA3); assay: Fluorescence-based biochemical high throughput dose response assay for inhibitors of the fructose-bisphosphate aldolase (FBA) of M. tuberculosis.; assay type: functional
Fructose-bisphosphate aldolase, sequence (P9WQA3 whole entry): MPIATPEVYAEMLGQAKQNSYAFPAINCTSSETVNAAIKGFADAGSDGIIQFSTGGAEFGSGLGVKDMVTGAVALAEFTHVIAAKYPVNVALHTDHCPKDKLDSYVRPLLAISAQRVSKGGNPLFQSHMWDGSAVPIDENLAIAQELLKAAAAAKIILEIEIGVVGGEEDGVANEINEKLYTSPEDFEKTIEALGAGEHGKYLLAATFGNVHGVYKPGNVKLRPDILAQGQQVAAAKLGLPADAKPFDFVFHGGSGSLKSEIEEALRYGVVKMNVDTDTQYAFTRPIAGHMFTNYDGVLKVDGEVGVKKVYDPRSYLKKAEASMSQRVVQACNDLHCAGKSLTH

HeLa = assay: viability loss in HeLa cells – cell-based, ATP luminescence, cherry-pick samples, cytotoxicity control, dose response (AID 687004); assay type: functional; conditions: Homo sapiens
[3] = HEK293 Cytotoxicity Assay Measured in Cell-Based System Using Plate Reader - 7071-01_Inhibitor_Dose_CherryPick_Activity_Set2.; assay type: functional
HEK293 = assay: viability loss in HEK293T cells – cell-based, ATP luminescence, cherry-pick samples, cytotoxicity control, dose response (AID 687005); assay type: functional; conditions: Homo sapiens;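 note: cells exposed to compound for 48 hours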
A549 = assay: viability loss in A549 cells – cell-based, plate reader, cherry-pick samples, cytotoxicity control, dose response (AID 687028); assay type: functional; conditions: Homo sapiens
[4] = human cervical cancer cell viability loss – 24 h, plate reader, dry powder, cytotoxicity control, dose response (AID 686928); assay type: functional, cell-based; conditions: HeLa
[5] = YAP1 overexpression rescue of CTGF inhibition – DLD1 cells, RT-qPCR, cherry-pick, mechanism study for YAP1 pathway inhibitor project, dose response (AID 1053127); assay type: functional, cell-based; conditions: DLD-1
[6] = blockade of melanocortin 4 receptor signaling – cell-based, plate reader, cherry pick, counter-screen for LGR2 antagonist project, dose response (AID 743444); assay type: functional;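 note: transfected HEK 293 cells stimulated with alpha-MSH peptide; potency of inhibitors of the alpha-MSH evoked signal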
[7] = viability loss in HepG2 hepatoma cells – cell-based, cherry-picks, set 5, cytotoxicity control, dose response (AID 1053118); assay type: functional
[8] = blockers of FN fibrillogenesis by fibroblasts – AH1F cells, Alexa488-FN fluorescence, cherry-picks, dose response (AID 1035475); assay type: functional, cell-based
[9] = viability loss in HEK293 kidney cells – cell-based, cherry-picks, set 5, cytotoxicity control, dose response (AID 1053117); assay type: functional
[10] = A549 cell cytotoxicity, dose response, cytotoxicity control, plate reader, cherry-pick, antagonist series (AID 743412); assay type: functional, cell-based
[11] = viability loss in HEK293 cells – cell-based, plate reader, cherry-picked samples, cytotoxicity control, dose response (AID 743446); assay type: functional
[12] = blockers of bursicon-stimulated LGR2 cAMP reporter – cell-based, HEK293, CRE-luciferase reporter, cherry pick, set 2, dose response (AID 743343); assay type: functional;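 note: transfected cells were stimulated with diluted bursicon conditioned medium after compound addition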
[13] = viability loss in A549 lung cancer cells – cell-based, cherry-picks, […], cytotoxicity control, dose response (AID 1053119); assay type: functional

CC1(Cc2ccccc2C#N)C(=O)Nc2cc(-c3ccccc3Cl)ccc21 (stereo unspecified)
AC50 [1]: > 52 µM (inactive)

COc1cccc(/C=C/c2nc(S(=O)(=O)c3ccccc3)c(N3CCC(C(N)=O)CC3)o2)c1
IC50 [2]: 0.676 µM (active)

C[C@@H]1CN([C@@H](C)CO)S(=O)(=O)c2ccc(C#Cc3ccccn3)cc2O[C@H]1CN(C)Cc1ccccc1
AC50 (HeLa): 39.1 µM (active)
AC50 [3]: 7.04 µM (active)
AC50 (HEK293): 7.04 µM (active)

C[C@H](CO)N1C[C@H](C)[C@H](CN(C)C(=O)Nc2ccc(C(F)(F)F)cc2)OCCCC[C@H](C)Oc2ccc(NS(=O)(=O)c3ccc(F)cc3)cc2C1=O
AC50 (A549): 33.6 µM (active)

Cc1ccc(-n2cnc(=O)c3ccccc32)cc1Cl
AC50 [4]: > 160 µM (inactive)

COc1ccccc1C(=O)Nc1ccc2c(c1)C(=O)N(C)C[C@H](OC)[C@@H](C)CN(C(C)=O)[C@@H](C)CO2
AC50 [5]: 8.95 µM (active)

C[C@@H]1CN([C@@H](C)CO)C(=O)c2cccc(NC(=O)Nc3ccc(C(F)(F)F)cc3)c2O[C@@H]1CN(C)C(=O)Nc1cccc2ccccc12
AC50 [6]: 22.8 µM (active)
AC50 [7]: 10.2 µM (active)
AC50 [8]: 12.9 µM (active)
AC50 [9]: 12.7 µM (active)
AC50 [10]: 27.8 µM (active)
AC50 [11]: > 52 µM (inactive)
AC50 [12]: 25 µM (active)
AC50 [13]: 12.8 µM (active)
